Results reported in ChEMBL document CHEMBL1141782, “Antineoplastic agents. 553. The Texas grasshopper Brachystola magna” (2005).
Converted amounts (≈) assume the structure as drawn.

Legend:
Assay type in all cases: functional
NCI-H460 = assay: Cytotoxicity against human NCI-H460 cells after 48 hrs by SRB assay; conditions: NCI-H460, 48 h, read-out: ED50 (the source's name)
KM-20L2 = assay: Cytotoxicity against human KM20L2 cells after 48 hrs by SRB assay; conditions: KM-20L2, 48 h, read-out: ED50 (the source's name)
DU-145 = assay: Cytotoxicity against human DU145 cells after 48 hrs by SRB assay; conditions: DU-145, 48 h, read-out: ED50 (the source's name)
P388 = assay: Cytotoxicity against mouse P388 cells; conditions: read-out: ED50 (the source's name)
BXPC-3 = assay: Cytotoxicity against human BxPC3 cells after 48 hrs by SRB assay; conditions: BXPC-3, 48 h, read-out: ED50 (the source's name)
MCF7 = assay: Cytotoxicity against human MCF7 cells after 48 hrs by SRB assay; conditions: MCF7, 48 h, read-out: ED50 (the source's name)
SF-268 = assay: Cytotoxicity against human SF268 cells after 48 hrs by SRB assay; conditions: SF-268, 48 h, read-out: ED50 (the source's name)

| SMILES | EC50 (NCI-H460) | EC50 (KM-20L2) | EC50 (DU-145) | EC50 (P388) | EC50 (BXPC-3) | EC50 (MCF7) | EC50 (SF-268) |
| --- | --- | --- | --- | --- | --- | --- | --- |
| O=C1N[C@@H]2C(=C[C@H](O)[C@@H](O)[C@H]2O)c2cc3c(c(O)c21)OCO3 [NARCICLASINE] | 0.014 µg/mL (≈ 0.0456 µM) | 0.023 µg/mL (≈ 0.0749 µM) | 0.012 µg/mL (≈ 0.0391 µM) | 0.018 µg/mL (≈ 0.0586 µM) | 0.024 µg/mL (≈ 0.0781 µM) | 0.014 µg/mL (≈ 0.0456 µM) | 0.018 µg/mL (≈ 0.0586 µM) |
| O=C1N[C@H]2[C@H](O)[C@H](O)[C@@H](O)[C@H](O)[C@@H]2c2cc3c(c(O)c21)OCO3 [PANCRATISTATIN] | 0.029 µg/mL (≈ 0.0892 µM) | 0.048 µg/mL (≈ 0.148 µM) | 0.037 µg/mL (≈ 0.114 µM) | 0.048 µg/mL (≈ 0.148 µM) | 0.043 µg/mL (≈ 0.132 µM) | 0.035 µg/mL (≈ 0.108 µM) | 0.032 µg/mL (≈ 0.0984 µM) |
| [O-]c1cc2c3c(c1)c1cc4c(cc1c[n+]3CC2)OCO4 [UNGEREMINE] | 0.65 µg/mL (≈ 2.45 µM) | 0.5 µg/mL (≈ 1.88 µM) | 0.029 µg/mL (≈ 0.109 µM) | 1.2 µg/mL (≈ 4.52 µM) | 0.87 µg/mL (≈ 3.28 µM) | 0.48 µg/mL (≈ 1.81 µM) | 0.057 µg/mL (≈ 0.215 µM) |
